Assay results reported in paper PMC9362525 (Diabetologia, 2022).
Read-outs that look alike come from different tables or passages of the source. Blank lines part the entries; values can stand above or below the molecule they belong to.

Key:
[1] = system: βV59M diabetic mouse islets; type: cell-based; details: diabetic islets + 10μM, 48 hours; n=7-8
[2] = system: men with T1DM and healthy men; type: in vivo, human
participants with NAFLD = type: in vivo, human
human delta cells = type: cell-based
human β-cells = type: cell-based
[3] = system: patients with obesity and T2D; type: in vivo, human
[4] = system: adult participants, liver steatosis by VCTE; details: multivariable adjusted
[5] = system: people with type 2 diabetes; type: in vivo, human; details: for achieved HbA1c: 16 weeks, pioglitazone 30mg, sitagliptin 100mg, canagliflozin 100mg
[6] = system: human subcutaneous primary preadipocytes; type: cell-based; details: for reduction of basal and insulin-stimulated glucose uptake: dose-dependent, exposure during differentiation
[7] = system: β-cells from Ins2GFP knock-in mice; type: cell-based, mouse
EndoC-βH1 cells = type: cell-based, human; details: 100 nM
patients with T2D = type: in vivo, human; details: for change in LVEF with acipimox: resting
[8] = FAERS 2013 Q1-2020 Q4
[9] = system: wounds of streptozotocin-diabetic C57BL/6 mice; type: in vivo, mouse
[10] = system: youth with type 2 diabetes; type: in vivo, human
[11] = system: skeletal muscle of type 2 diabetes patients; details: 5 weeks
[12] = system: individuals with prediabetes; details: 2 weeks
T2DM and NGT subjects = details: for EGP after drug: 10 mg single dose, 4 hours; for increase in renal glucose production (RGP): non-significant
HFD/STZ C57Bl/6 mice = type: in vivo, mouse
C57BL/6J mice = type: in vivo, mouse
db/db mice retinas = type: in vivo, mouse
patients with T2DM = type: in vivo, human; details: all
[13] = system: patients with type 2 diabetes; type: in vivo, human; details: Ipr 50 mg or Met 1000 mg, 24 weeks, n=15 per group
[14] = before RYGB, GIP […], GLP-1 1 pmol/kg/min, ~15 mM glucose
[15] = 10 mg once daily, LS mean (95% CI)

Molecule: PF-4708671 [S6Ki]
glucose-stimulated increase in OCR above baseline [1]: 203.94±39.24%
oligomycin-induced decrease in OCR [1]: 240.32±9.71%

blood D-3-OHB concentration during infusion ([2]; CTR, from 0.2±0.03): 1.0 ± 0.1 mmol/L
blood D-3-OHB concentration during infusion ([2]; T1DM, from 0.2±0.06): 1.2 ± 0.12 mmol/L
Molecule: 3-hydroxybutyrate [3-OHB]
circulating FFA concentration after infusion ([2]; CTR, from 0.48±0.09): 0.21 ± 0.04 mmol/L
circulating FFA concentration after infusion ([2]; T1DM, from 0.68±0.12): 0.15 ± 0.03 mmol/L

Molecule: CC(C)c1nc(N(C)S(C)(=O)=O)nc(-c2ccc(F)cc2)c1/C=C/[C@@H](O)C[C@@H](O)CC(=O)O [monotherapy, rosuvastatin]
MRI-PDFF at study completion (participants with NAFLD; baseline 18.1 (combination), 15.0 (monotherapy)): 12.4%
CAP by transient elastography at completion (participants with NAFLD; baseline 321 (combination), 323 (monotherapy)): 311 dB/m

Molecule: CNC[C@H](O)c1ccc(O)c(O)c1 [adrenaline]
change in K+-stimulated exocytosis (human delta cells): +56%
change in K+-stimulated exocytosis vs diazoxide only (human delta cells): -59%

Molecule: NC(=O)N1c2ccccc2CC(=O)c2ccccc21 [oxcarbazepine]
cytokine- and ER stress-induced β-cell death (human β-cells): protected

Molecule: glucose-dependent insulinotropic peptide [GIP]
augmentation of second phase insulin secretion vs saline-clamp ([3]; 3 months after RYGB): +90±14%
augmentation of second phase insulin secretion vs saline-clamp [3, 14]: +96±16%

Molecule: CCC(CCC(C)O)COC(=O)c1ccccc1C(=O)O (centres unmarked) [MEHHP, mono(2-ethyl-5-hydroxyhexyl) phthalate]
OR for NAFLD per unit increase of urinary concentration [4]: 1.01

Molecule: CCc1ccc(CCOc2ccc(CC3SC(=O)NC3=O)cc2)nc1 (centres unmarked) [pioglitazone]
achieved HbA1c [5]: 59.5 mmol/mol
weight on therapy higher than other drugs ([5]; [95%CI]): 2.6 [2.3, 2.9] kg

Molecule: dehydroaripiprazole [DARI]
reduction of basal and insulin-stimulated glucose uptake [6]: ≤ 70%

Molecule: CCCC(=O)O [sodium butyrate]
Ins2 gene activity state [7]: inducing transitions from Ins2^GFP(low) states to Ins2^GFP(high) states

Molecule: O=C1CCc2ccc(OCCCCN3CCN(c4cccc(Cl)c4Cl)CC3)cc2N1 [ARI, aripiprazole]
reduction of basal and insulin-stimulated glucose uptake [6]: ≤ 70%
reduction of preadipocyte differentiation rate ([6]; supra-therapeutic concentrations, 14 days): ≤ 80%

Molecule: N=C(N)NCCC[C@H](N)C(=O)O [arginine]
Ins2 gene activity state [7]: inducing transitions from Ins2^GFP(low) states to Ins2^GFP(high) states

Molecule: insulin-like growth factor binding protein 7 [IGFBP7]
insulin secretion normalised to total insulin (EndoC-βH1 cells; 72 h, CTRL 5.2, n=4): 4.0 %/h
C-peptide secretion at 20 mM glucose (EndoC-βH1 cells; acute, CTRL 111, n=5): 90 ng/mg prot/h

Molecule: Cc1cnc(C(=O)O)c[n+]1[O-] [acipimox]
reduction of FFAs (patients with T2D; acute, at all visits): ~ 35%
change in LVEF with acipimox (patients with T2D; during empagliflozin treatment): -6±2%
change in LVEF with acipimox (patients with T2D; during insulin treatment): -5.4±1%

Molecule: CC[C@H](C)[C@H](NC(=O)[C@H](Cc1ccccc1)NC(=O)[C@H](CCC(=O)O)NC(=O)[C@H](CCCCNC(=O)COCCOCCNC(=O)COCCOCCNC(=O)CC[C@H](NC(=O)CCCCCCCCCCCCCCCCC(=O)O)C(=O)O)NC(=O)[C@H](C)NC(=O)[C@H](C)NC(=O)[C@H](CCC(N)=O)NC(=O)CNC(=O)[C@H](CCC(=O)O)NC(=O)[C@H](CC(C)C)NC(=O)[C@H](Cc1ccc(O)cc1)NC(=O)[C@H](CO)NC(=O)[C@H](CO)NC(=O)[C@@H](NC(=O)[C@H](CC(=O)O)NC(=O)[C@H](CO)NC(=O)[C@@H](NC(=O)[C@H](Cc1ccccc1)NC(=O)[C@@H](NC(=O)CNC(=O)[C@H](CCC(=O)O)NC(=O)C(C)(C)NC(=O)[C@@H](N)Cc1cnc[nH]1)[C@@H](C)O)[C@@H](C)O)C(C)C)C(=O)N[C@@H](C)C(=O)N[C@@H](Cc1c[nH]c2ccccc12)C(=O)N[C@@H](CC(C)C)C(=O)N[C@H](C(=O)N[C@@H](CCCNC(=N)N)C(=O)NCC(=O)N[C@@H](CCCNC(=N)N)C(=O)NCC(=O)O)C(C)C [semaglutide]
PRR for gallbladder or biliary diseases [8]: 6.267

Molecule: Cc1cc2c(s1)Nc1ccccc1N=C2N1CCN(C)CC1 [OLA, olanzapine]
adipogenesis or lipid and glucose metabolism ([6]; 0.2 and 2 μM during differentiation): did not affect
increase in LEP expression ([6]; present during differentiation): ~ 2 fold

Molecule: GABA
change in K+-stimulated exocytosis vs diazoxide only (human delta cells): +66%

Molecule: CCCCCCCCCCCCCCCC(=O)N[C@@H](CCC(=O)NCCCC[C@H](NC(=O)[C@H](C)NC(=O)[C@H](C)NC(=O)[C@H](CCC(N)=O)NC(=O)CNC(=O)[C@H](CCC(=O)O)NC(=O)[C@H](CC(C)C)NC(=O)[C@H](Cc1ccc(O)cc1)NC(=O)[C@H](CO)NC(=O)[C@H](CO)NC(=O)[C@@H](NC(=O)[C@H](CC(=O)O)NC(=O)[C@H](CO)NC(=O)[C@@H](NC(=O)[C@H](Cc1ccccc1)NC(=O)[C@@H](NC(=O)CNC(=O)[C@H](CCC(=O)O)NC(=O)[C@H](C)NC(=O)[C@@H](N)Cc1cnc[nH]1)[C@@H](C)O)[C@@H](C)O)C(C)C)C(=O)N[C@@H](CCC(=O)O)C(=O)N[C@@H](Cc1ccccc1)C(=O)N[C@H](C(=O)N[C@@H](C)C(=O)N[C@@H](Cc1c[nH]c2ccccc12)C(=O)N[C@@H](CC(C)C)C(=O)N[C@H](C(=O)N[C@@H](CCCNC(=N)N)C(=O)NCC(=O)N[C@@H](CCCNC(=N)N)C(=O)NCC(=O)O)C(C)C)[C@@H](C)CC)C(=O)O [liraglutide]
PRR for gallbladder or biliary diseases [8]: 5.001

Molecule: CCC(CCC(C)=O)COC(=O)c1ccccc1C(=O)O (centres unmarked) [MEOHP, mono(2-ethyl-5-oxohexyl) phthalate]
OR for NAFLD per unit increase of urinary concentration [4]: 1.01

Molecule: Bone morphogenetic protein-7 [BMP7]
acceleration of wound closure ([9]; 0.5 μg per wound/day topical, vs vehicle): 20%
number of lymphocytes in diabetic wounds ([9]; mouse, in vivo): did not change
collagen deposition higher ([9]; vs vehicle-treated wounds): 35%
increase in area of granulation tissue ([9]; vs vehicle-treated wounds): 50%
reduction in number of macrophages ([9]; vs vehicle-treated wounds): 30%

Molecule: dulaglutide
BMI change ([10]; 26 weeks): No effect
incidence of diarrhoea ([10]; pooled doses): 18.4%
incidence of nausea ([10]; pooled doses): 14.6%
incidence of vomiting ([10]; pooled doses): 15.5%
patients requiring rescue therapy ([10]; pooled doses 0.75 and 1.5 mg, 26 weeks): 2.9%

Molecule: glucagon-like peptide-1 [GLP-1]
augmentation of second phase insulin secretion vs saline-clamp ([3]; 3 months after RYGB): +233±32%
augmentation of second phase insulin secretion vs saline-clamp [3, 14]: +399±84%
Ins2 gene activity state [7]: inducing transitions from Ins2^GFP(low) states to Ins2^GFP(high) states

Molecule: CCOc1ccc(Cc2cc([C@@H]3O[C@H](CO)[C@@H](O)[C@H](O)[C@H]3O)ccc2Cl)cc1 [dapagliflozin]
PCr recovery rate [11, 15]: 23.1 (20.7-25.5) s
acetylcarnitine levels in muscle [11, 15]: 114.56 (91.16-137.95) pmoles*mg tissue^-1
lipid droplet size [11, 15]: 0.28 (0.20-0.36) μm^2
mitochondrial network integrity [11, 15]: 1.73 (1.33-2.12)
mitochondrial-LD interaction [11, 15]: 12.51 (9.70-15.32) %
CPT1A gene expression increase ([11]; muscle biopsy): 1.33 fold
CPT1B gene expression increase ([11]; muscle biopsy): 1.13 fold
urinary glucose excretion ([12]; 10mg/day): 36 gram/24-hour
24-hour RER ([12]; 10mg/day, whole-room indirect calorimetry): 0.814 ± 0.006
coupled mitochondrial respiration on lipid-derived substrates (O2-flux) ([12]; ex vivo skeletal muscle): 68.2 ± 3.2 pmol/mg/s
EGP after drug (T2DM and NGT subjects; NGT): 2.1±0.16
increase in renal glucose production (RGP) (T2DM and NGT subjects; NGT): 0.032 mg/kg.min
EGP after drug (T2DM and NGT subjects; T2DM): 2.43±0.15
increase in renal glucose production (RGP) (T2DM and NGT subjects; T2DM): 0.065 mg/kg.min
increase in total body EGP (T2DM and NGT subjects; in vivo): 0.45 mg/kg.min

Molecule: C=C[C@@]1(C)CC(=O)[C@]2(O)[C@@]3(C)[C@@H](O)CCC(C)(C)[C@@H]3[C@H](O)[C@H](OC(C)=O)[C@@]2(C)O1 [forskolin]
change in K+-stimulated exocytosis vs diazoxide only (human delta cells): +68%

Molecule: Irisin
change in body weight vs HFD/STZ (HFD/STZ C57Bl/6 mice; 0.5 μg/g, 14 days): -13%
change in glycemia vs HFD/STZ (HFD/STZ C57Bl/6 mice; 0.5 μg/g, 14 days, n=4): -31%
change in GSIS AUC vs HFD/STZ (HFD/STZ C57Bl/6 mice; mouse, in vivo): +23%
change in alpha-cell area vs HFD/STZ (HFD/STZ C57Bl/6 mice; mouse, in vivo): -49%
change in beta-cell area vs HFD/STZ (HFD/STZ C57Bl/6 mice; mouse, in vivo): +34%
change in insulin content vs HFD/STZ (HFD/STZ C57Bl/6 mice; mouse, in vivo): +36%
change in islets volume vs HFD/STZ (HFD/STZ C57Bl/6 mice; mouse, in vivo): +61%
increase in beta-cell proliferation rate (HFD/STZ C57Bl/6 mice; vs SD and HFD/STZ): 9 fold
final body weight (C57BL/6J mice; 0.5 μg/g i.p., 4 weeks, HFD 49.67 ± 1.48): 44.87 ± 1.42 g
fat mass (C57BL/6J mice; HFD 14.56 ± 0.43): 11.75 ± 0.78 g
fat/weight (C57BL/6J mice; HFD 29.37 ± 0.75): 26.08 ± 1.09%

Molecule: N[C@@H](CC(=O)N1CCn2c(nnc2C(F)(F)F)C1)Cc1cc(F)c(F)cc1F [sitagliptin]
diabetes-induced down-regulation of presynaptic proteins (db/db mice retinas; eye drops 5 μL/eye, 10 mg/mL, twice per day, 2 weeks): inhibits this diabetes-induced down-regulation
blood glucose levels (db/db mice retinas; topical): without any effect
achieved HbA1c [5]: 59.9 mmol/mol

Molecule: COc1ccc(Cl)cc1C(=O)NCCc1ccc(S(=O)(=O)NC(=O)NC2CCCCC2)cc1 [glibenclamide]
incidence of severe hypoglycaemia (patients with T2DM): 1.3 % per year

Molecule: OC[C@H]1O[C@@H](c2ccc(F)c(Cc3cc4ccccc4s3)c2)[C@H](O)[C@@H](O)[C@@H]1O [Ipr, ipragliflozin]
change in visceral fat area [13]: -17.8%
